Test results: PMC7614683, “A small molecule PI3Kα activator for cardioprotection and neuroregeneration” (Nature, 2023)

Experiments:
PI3Kα-WT A549 cells = assay: TIRF microscopy of PIP3 reporter, PI3Kα-WT A549; type: cell-based, human; conditions: 1938, then BYL719 0.5 μM
Experimental: Phosphoinositide reporters used were GFP-PH-ARNO^I303Ex2 (PIP3 reporter[41]) and mCherry-cPH-TAPP1x3 (PI(3,4)P2 reporter[41]). TIRF microscopy allows selective imaging of the small cell volume, including the plasma membrane, directly adjacent to the coverslip onto which cells have been seeded. HeLa or A549 cells were seeded in Matrigel-coated (Corning #354230; diluted in Opti-MEM at 1:50) 8-well chamber slides (glass bottom, 1.55 refractive index; Thermo Fisher Scientific #155409) at a density of 5,000 cells/well. […]
Image analyses of total reporter intensities were performed with the Fiji open source image analysis package. The region of interest (ROI) corresponding to the footprint of the individual cell across time points were defined using minimal intensity projection to select only pixels present across all time points, following prior subtraction of camera noise (rolling ball method, radius = 500 pixels) and xy drift correction, intensity levels over time were measured. […] All other quantifications were performed using the open source software R/RStudio. The values plotted in Fig. 3d (iii) represent mean±SEM, following signal scaling to minimum and maximum values of the normalised fluorescence intensity for each time point (Fn(t)). […]

PI3Kα-KO A549 cells = assay: TIRF microscopy of PIP3 reporter, PI3Kα-KO A549; type: cell-based, human
Source text: Generation of pooled PIK3CA-null A549 cells was outsourced to Synthego Corporation. Briefly, the PIK3CA gene was targeted with synthetic ribonucleoprotein (RNP) complexes including the following single guide RNA (sgRNA) sequence: 5’-[…]-3’. This sequence is located within PIK3CA exon 3 and covers the coding sequence preceding the p110α RAS binding domain, with the Cas9 cut site corresponding to amino acids 156/157 of p110α). In parallel, control cultures were exposed to the Cas9 protein without sgRNA, henceforth referred to as “WT cultures”. Single-cell clones were established from both WT and targeted cultures by limiting dilution, thereby ensuring seeding of maximum 1 cell per well of a 96-well plate. To promote recovery, subcloned cells in 96-wells were cultured in a 1:1 mixture of standard A549 complete medium and conditioned medium. Conditioned medium was prepared from WT cultures 2 days post-passaging by centrifuging the medium at 1000g for 10 min, followed by 0.22 μm PES filtration and storage at 4°C (-80°C for storage exceeding 2 weeks). The medium was replenished every 2-3 days, as gently as possible to prevent cells from dislodging. Once cells reached sub-confluence, they were expanded to 24-well plates and 25 cm[2] flasks, followed by genotyping and cell banking. […]

MEFs = assay: Phosphoinositide quantification by mass spectrometry, MEFs; type: cell-based, mouse
Experimental: A549 cells (5.10^5) or wild-type MEFs (3.10^5) were plated in complete media onto 3.5 cm dishes or 60 mm dishes respectively for 24 h, prior to FCS-free starvation media for 16 h. MEFs, in addition, were supplemented with arachidonic acid in the FCS-free starvation media as previously described. […] Reactions were terminated in 600 μl ice-cold 1 M HCl and cells scraped and resuspended, then divided into two equal samples in eppendorfs. […] The data are shown as response ratios, calculated by normalizing the multiple reaction monitoring (MRM)-targeted lipid integrated response area to that of a known amount of relevant internal standard. To account for any cell input variability, PIP3 response ratios were normalized to C38:4-PI response ratios; while PI(3,4)P2 response ratios were normalised to PI(4,5)P2 response ratios. Data shown are mean ±SD for n ≥3, except for non-DMSO control in MEF PIP3 measurements where n=1.

CCN1CCN(c2ccc(Nc3cc(Nc4cccc5c4N(C(C)=O)CC5)ccn3)cc2)CC1 [Compound 1938] was tested, and the “plasma membrane PIP3 (biosensor)” value (PI3Kα-WT A549 cells) was “acute plasma membrane-associated PIP3 production”, the “plasma membrane PIP3 (biosensor)” value (PI3Kα-KO A549 cells) was “not seen” and the “time for which maximal PIP3 level is maintained” value (MEFs) was “up to 40 min”. For the same molecule, the “time of maximal PIP3 level” value (MEFs) was 5 min, the “time to increased PIP3 levels” value (MEFs) was at most 30 s and the “concentration at which PIP3 induction plateaus” value (MEFs; 2 min) was “around 10 μM”. For the same molecule, the “PIP3 levels compared with insulin and PDGF” value (MEFs; 2 min time point) was “comparable to those induced by insulin” and the EC50 (MEFs; Mus musculus, 2 min, read-out: EC50 of PIP3 induction) was about 5 µM.
